Each compound was assayed against T1, SARM1 (50-724) (Homo sapiens, UniProt Q6SZW1) (assay: biochemical).
T1 sequence (Q6SZW1 50-724): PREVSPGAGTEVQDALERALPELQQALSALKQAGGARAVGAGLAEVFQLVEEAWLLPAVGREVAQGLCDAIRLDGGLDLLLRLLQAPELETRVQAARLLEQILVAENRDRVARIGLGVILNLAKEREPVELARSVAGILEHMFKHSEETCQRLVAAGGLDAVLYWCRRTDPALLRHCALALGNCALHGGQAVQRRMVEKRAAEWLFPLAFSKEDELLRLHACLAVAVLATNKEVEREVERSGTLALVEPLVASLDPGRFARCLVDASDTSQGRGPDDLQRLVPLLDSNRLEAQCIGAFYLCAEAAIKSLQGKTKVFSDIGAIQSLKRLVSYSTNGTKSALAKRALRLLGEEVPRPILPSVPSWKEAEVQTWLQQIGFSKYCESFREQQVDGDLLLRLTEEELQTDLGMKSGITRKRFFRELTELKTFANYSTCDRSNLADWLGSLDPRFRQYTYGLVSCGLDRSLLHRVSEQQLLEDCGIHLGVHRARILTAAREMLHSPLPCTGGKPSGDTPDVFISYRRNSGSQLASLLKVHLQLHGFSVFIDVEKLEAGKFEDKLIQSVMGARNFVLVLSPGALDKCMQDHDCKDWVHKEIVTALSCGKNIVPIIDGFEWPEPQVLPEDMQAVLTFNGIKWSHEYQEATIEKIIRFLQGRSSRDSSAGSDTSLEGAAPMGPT
Experimental: An enzymatic assay was performed in a 384-well plate using Dulbecco's phosphate-buffered saline (PBS) as the reaction buffer. […] The reaction was initiated by adding a mixture of 200 μM nicotinamide mononucleotide (NMN) as activator and 100 μM NAD^+ as substrate. After 1 h of incubation at room temperature, the reaction was terminated with 10 times volume of 70% acetonitrile, then centrifuged at 3800 rpm for 10 min.
Work on `COc1nccc(C(C)Nc2ccc3c(c2)C(=O)NCC3)c1Cl` (single isomer, unassigned) [Example 95] yielded an IC50 of 0.5 to 1 µM.
In the case of `CC(Nc1ccc2cc[nH]c(=O)c2c1)c1ccc(Cl)cc1` (racemic) [Example 116, 7-((1-(4-chlorophenyl)ethyl)amino)isoquinolin-1(2H)-one], the IC50 is reported as > 1 µM.
For `Cc1nc(C(C)Nc2ccc3c(C)n(CC(N)=O)nc3c2)sc1Cl` (single isomer, unassigned) [Compound 363], the IC50 was > 1 µM.
For `CC(Nc1ccc2nc[nH]c(=O)c2n1)c1c(Cl)ccc(F)c1Cl` (single isomer, unassigned) [Compound 382], the IC50 was < 0.1 µM.
`Cc1c(Br)cccc1S(=O)(=O)Nc1ccc2c(c1)C(=O)NCC2` [Compound 13, 3-bromo-2-methyl-N-(1-oxo-1,2,3,4-tetrahydroisoquinolin-7-yl)benzenesulfonamide] was tested, and the IC50 was < 0.1 µM.
In the case of `CC1Cc2ccc(NS(=O)(=O)c3cccc(Cl)c3Cl)cc2NC1=O` (racemic) [Compound 269, 2,3-dichloro-N-(3-methyl-2-oxo-3,4-dihydro-1H-quinolin-7-yl)benzenesulfonamide], the IC50 is reported as < 0.1 µM.
`CC(Nc1cc(F)c2ncn(CC(N)=O)c(=O)c2c1)c1nc(Cl)c(Cl)s1` (single isomer, unassigned) [Compound 323A] was tested, and the IC50 was > 1 µM.
`O=C1NC(CO)CCc2ccc(NS(=O)(=O)c3cccc(Cl)c3Cl)cc21` (single isomer, unassigned) [Compound 304B] showed an IC50 of 0.5 to 1 µM.
Compound `Cn1c(C(N)=O)nc2cc(NS(=O)(=O)c3cccc(Cl)c3Cl)ccc21` [Compound 225, 5-((2,3-dichlorophenyl)sulfonamido)-1-methyl-1H-benzo[d]imidazole-2-carboxamide] has an IC50 of 0.1 to 0.5 µM.
`CC(Nc1ccc2c(c1)N(C(=O)CC(N)=O)CC2(C)C)c1sc(Cl)nc1Cl` (racemic) [Compound 317, 3-(6-((1-(2,4-dichlorothiazol-5-yl)ethyl)amino)-3,3-dimethylindolin-1-yl)-3-oxopropanamide] was tested, and the IC50 was < 0.1 µM.
`CC1CCCN(S(=O)(=O)Nc2ccc3c(c2)C(=O)NCC3)C1` (racemic) [Example 169, 3-methyl-N-(1-oxo-1,2,3,4-tetrahydroisoquinolin-7-yl)piperidine-1-sulfonamide] was tested, and the IC50 was > 1 µM.
`CC(Nc1ccc2cc[nH]c(=O)c2c1)c1cc(Cl)cc(Cl)c1Cl` (racemic) [Example 138, 7-((1-(2,3,5-trichlorophenyl)ethyl)amino)isoquinolin-1(2H)-one] was tested, and the IC50 was < 0.1 µM.
For `CC(Nc1ccc2cc[nH]c(=O)c2c1)c1nc(Cl)c(Cl)s1` (racemic) [Compound 187, 7-((1-(4,5-dichlorothiazol-2-yl)ethyl)amino)isoquinolin-1(2H)-one], the IC50 was < 0.1 µM.
With `CC1(C)C(=O)N(CCO)c2cc(NS(=O)(=O)c3cccc(Cl)c3Cl)ccc21` [Compound 240, 2,3-dichloro-N-(1-(2-hydroxyethyl)-3,3-dimethyl-2-oxoindolin-6-yl)benzenesulfonamide] the IC50 was < 0.1 µM.
In the case of `CC(Nc1cc(F)c2ncn(CCO)c(=O)c2c1)c1nc(Cl)c(Cl)s1` (racemic) [Compound 297, 6-((1-(4,5-dichlorothiazol-2-yl)ethyl)amino)-8-fluoro-3-(2-hydroxyethyl)quinazolin-4(3H)-one], the IC50 is reported as < 0.1 µM.
With `CC(Nc1cc(F)c2ncn(CC(N)=O)c(=O)c2c1)c1ccc(F)c(Cl)c1Cl` (racemic) [Compound 351, 2-(6-((1-(2,3-dichloro-4-fluorophenyl)ethyl)amino)-8-fluoro-4-oxoquinazolin-3(4H)-yl)acetamide] the IC50 was < 0.1 µM.
`O=S(=O)(Nc1ccc2sc(Cl)nc2c1)c1cccc(Cl)c1Cl` [Compound 33, 2,3-dichloro-N-(2-chlorobenzo[d]thiazol-5-yl)benzenesulfonamide] showed an IC50 of 0.1 to 0.5 µM.
For `Cc1nn(CCO)c2cc(NC(C)c3nc(Cl)c(Cl)s3)ccc12` (racemic) [Compound 301, 2-(6-((1-(4,5-dichlorothiazol-2-yl)ethyl)amino)-3-methyl-1H-indazol-1-yl)ethan-1-ol], the IC50 was < 0.1 µM.
In the case of `CC[C@H](C(N)=O)c1ccc(N[C@@H](C)c2nc(Cl)c(Cl)s2)cc1` (single isomer, unassigned) [Compound 302], the IC50 is reported as < 0.1 µM.
`O=S(=O)(Nc1cccc(-c2cnccn2)c1)c1cccc(Cl)c1Cl` [Compound 83, 2,3-dichloro-N-(3-pyrazin-2-ylphenyl)benzenesulfonamide] was tested, and the IC50 was 0.1 to 0.5 µM.
For `CC(Nc1ccc2cnn(C)c(=O)c2c1)c1cccc(Cl)c1Cl` (racemic) [Example 149, 7-((1-(2,3-dichlorophenyl)ethyl)amino)-2-methylphthalazin-1(2H)-one], the IC50 was 0.1 to 0.5 µM.
`Cc1c(Cl)c(C(C)Nc2ccc3cc[nH]c(=O)c3c2)nn1C` (single isomer, unassigned) [Compound 226A] was tested, and the IC50 was > 1 µM.
With `CC1CCN(S(=O)(=O)Nc2ccc3c(c2)C(=O)NCC3)CC1` [Example 164, 4-methyl-N-(1-oxo-1,2,3,4-tetrahydroisoquinolin-7-yl)piperidine-1-sulfonamide] the IC50 was > 1 µM.
In the case of `Cc1c(Cl)c(C(C)Nc2ccc3cc[nH]c(=O)c3c2)nn1CC(F)(F)F` (racemic) [Compound 257, 7-((1-(4-chloro-5-methyl-1-(2,2,2-trifluoroethyl)-1H-pyrazol-3-yl)ethyl)amino)isoquinolin-1(2H)-one], the IC50 is reported as < 0.1 µM.
`Cc1cc(F)cc(C(Nc2ccc3c(c2)C(=O)NCC3)C(F)(F)F)c1` (stereo not shown) [Example 174, 7-((2,2,2-trifluoro-1-(3-fluoro-5-methylphenyl)ethyl)amino)-3,4-dihydroisoquinolin-1(2H)-one] showed an IC50 of 0.1 to 0.5 µM.
With `Cc1n[nH]c(=O)c2cc(NC(CCO)c3nc(Cl)c(Cl)s3)ccc12` (racemic) [Example 294] the IC50 was < 0.1 µM.
With `CC[C@@H](C(N)=O)c1ccc(N[C@@H](C)c2nc(Cl)c(Cl)s2)cc1` (single isomer, unassigned) [Compound 302C] the IC50 was 0.1 to 0.5 µM.
For `CC(Nc1cc(F)c2ncn(-c3ncnn3C)c(=O)c2c1)c1nc(Cl)c(Cl)s1` (racemic) [Example 373, 6-((1-(4,5-dichlorothiazol-2-yl)ethyl)amino)-8-fluoro-3-(1-methyl-1H-1,2,4-triazol-5-yl)quinazolin-4(3H)-one], the IC50 was < 0.1 µM.
In the case of `CC(Nc1ccc2c(c1)NC(=O)C2(C)C)c1nccc(Cl)c1Cl` (racemic) [Example 210, 6-((1-(3,4-dichloropyridin-2-yl)ethyl)amino)-3,3-dimethylindolin-2-one], the IC50 is reported as < 0.1 µM.
`CC(Nc1ccc2cc[nH]c(=O)c2c1)c1ccccc1Cl` (racemic) [Example 110, 7-((1-(2-chlorophenyl)ethyl)amino)isoquinolin-1(2H)-one] was tested, and the IC50 was 0.1 to 0.5 µM.
In the case of `O=C1NCCc2ccc(NS(=O)(=O)c3cc(F)c(F)c(F)c3)cc21` [Compound 34, 3,4,5-trifluoro-N-(1-oxo-1,2,3,4-tetrahydroisoquinolin-7-yl)benzenesulfonamide], the IC50 is reported as > 1 µM.
For `Cc1c2ccc(NC(C)c3sc(Cl)nc3Cl)cc2nn1CC(N)=O` (single isomer, unassigned) [Compound 347A], the IC50 was > 1 µM.
For `CC1(C)c2ccc(NS(=O)(=O)c3cccc(Cl)c3Cl)cc2C(=O)N1CCO` [Compound 303], the IC50 was 0.1 to 0.5 µM.
Work on `N#Cc1cccc2ccc(NS(=O)(=O)c3cccc(Cl)c3Cl)cc12` [Compound 85, 2,3-dichloro-N-(8-cyanonaphthalen-2-yl)benzenesulfonamide] yielded an IC50 of 0.1 to 0.5 µM.
For `CC(Nc1ccc2c(c1)C(=O)N(CC(N)=O)C2(C)C)c1nc(Cl)c(Cl)s1` (single isomer, unassigned) [Compound 320A], the IC50 was > 1 µM.
For `O=S(=O)(Nc1ccc2c(F)n[nH]c2c1)c1cccc(Cl)c1Cl` [Compound 75, 2,3-dichloro-N-(3-fluoro-1H-indazol-6-yl)benzenesulfonamide], the IC50 was < 0.1 µM.
`CC(Nc1ccc2c(c1)N(CCO)C(=O)C2(C)C)c1nc(Cl)c(Cl)s1` (racemic) [Compound 277, 6-((1-(4,5-dichlorothiazol-2-yl)ethyl)amino)-1-(2-hydroxyethyl)-3,3-dimethylindolin-2-one] was tested, and the IC50 was < 0.1 µM.
With `[2H]C(C)(Nc1ccc2c(C)n(CC(N)=O)nc2c1)c1nc(Cl)c(Cl)s1` (single isomer, unassigned) [Compound 378] the IC50 was > 1 µM.
`CC(Nc1ccc2cc[nH]c(=O)c2c1)c1csc(Cl)c1Cl` (racemic) [Compound 353, 7-((1-(4,5-dichlorothiophen-3-yl)ethyl)amino)isoquinolin-1(2H)-one] was tested, and the IC50 was < 0.1 µM.
For `CC(Nc1cc(F)c2ncn(-c3ncc[nH]3)c(=O)c2c1)c1nc(Cl)c(Cl)s1` (racemic) [Example 375, 6-((1-(4,5-dichlorothiazol-2-yl)ethyl)amino)-8-fluoro-3-(1H-imidazol-2-yl)quinazolin-4(3H)-one], the IC50 was < 0.1 µM.
`Cc1n[nH]c2cc(NS(=O)(=O)c3c(Cl)ccc(Cl)c3Cl)ccc12` [Compound 81, 2,3,6-trichloro-N-(3-methyl-1H-indazol-6-yl)benzenesulfonamide] was tested, and the IC50 was < 0.1 µM.
For `CC(Nc1cc(F)c2nc[nH]c(=O)c2c1)c1nccc(Cl)c1Cl` (racemic) [Compound 352, 6-((1-(3,4-dichloropyridin-2-yl)ethyl)amino)-8-fluoroquinazolin-4(3H)-one], the IC50 was < 0.1 µM.
With `C[C@H](Nc1ccc2c(c1)NC(=O)C2(C)C)c1nc(Cl)c(Cl)s1` (single isomer, unassigned) [Compound 234A] the IC50 was > 1 µM.
